This is an account of results in patent publication US20130034536A1, “Bile Acid Recycling Inhibitors for Treatment of Pancreatitis” (Lumena Pharmaceuticals, Inc., priority 2011, published 2013).

This experiment has as its system plasma active GLP-1 levels. In words: In vivo effects of ASBT inhibitor SC-435 on plasma active GLP-1 levels in rats (ELISA). Further details: species or system Sprague Dawley rats. The method, then:
Male Sprague Dawley rats (HSD) 12 weeks old were fasted overnight for 16 hours.
SC-435 (racemate form synthesized at Nanosyn Inc. Menlo Park, Calif.) in 1 ml of saline administrated orally via gavage tube (n=5 per group).
Blood samples (200 μl) taken from the caudal vein with capillary tube at […] after compound administration for testing of plasma active GLP-1 levels (ELISA, Millipore Inc.)
Blood was collected in ice-cooled EDTA vial. Immediately (<30 seconds) after collection DPP-IV inhibitor added (10mkl per 1 ml blood). Samples were centrifuged immediately at 1000×g for 10 minutes in refrigerated centrifuge. Plasma was stored at −70° C. until evaluation.
On the technique in general: An ELISA detects its analyte on a solid surface through an enzyme-linked reagent.

With “1-[4-[4-[(4R,5R)-3,3-dibutyl-7-(dimethylamino)-2,3,4,5-tetrahydro-4-hydroxy-1,1-dioxido-benzothiepin-5-yl]phenoxy]butyl]-4-aza-1-azoniabicyclo[2.2.2]octane methanesulfonate salt [SC-435]”, the “time of peak GLP-1 after administration” value (after oral SC-435 administration) was in the range of 3 to 5 h. Also, the “increase of 5-hour integrated GLP-1 concentrations vs. vehicle” value (oral gavage, doses 3, 30 or 100 mg/kg, overnight-fasted male rats, dose-dependent) was determined as 2.5 fold. Besides, for the setting “plasma active GLP-1 after oral SC-435”, the “Peak GLP-1” value lay in the range of 30 to 36 pM.
